The results in this text go back to US11117890B2, “Substituted isoindole allosteric EGFR inhibitors” (Hoffmann-La Roche Inc., priority 2017, dated 2021).

Structures can show the parent of a compound that is named as a salt.

The test addresses T1, Phospho-EGFR in H1975 cell line (Homo sapiens, UniProt P00533, L858R/T790M).
T1 construct: H1975 cell line was obtained from American Type Culture Collection; host or cells: H1975
As to the kind of experiment: HTRF Phospo EGFR Assay (Cellular). The format is cell-based. As to conditions: H1975 cells; 6 hours compound incubation in starving medium; HTRF anti-Phospho-EGFR readout. As to the method: HTRF Phospo EGFR Assay (Cellular)
H1975 cell line was obtained from American Type Culture Collection (Manassas, Va., USA). Cells were maintained at 37° C., 5% CO2 in complete Media RPMI 1640 without phenol red containing 0.3 mg/ml glutamine, 100 IU/ml penicillin, and […] (Gibco) supplemented with 10% fetal bovine serum (FBS) (Gibco). Compounds were diluted into starving medium RPMI 1640 Media without phenol red containing 0.3 mg/ml glutamine, 100 IU/ml penicillin, and […] (Gibco).
Cells were cultured overnight in a 384-well white plate (8000 cells/well) using 8 μl of complete medium/well. Cells were washed two times with 20 μl of starving medium. Media was removed by tapping plates on tissue and subsequently 8 μl of fresh starving medium/well was added. Then 4 μl/well of the 3×compound solution, containing a half-log dilution series of the compound or DMSO in starving medium, were added to the cells. After 6 hours at 37° C., 5% CO2 cells were lysed by adding to the compound mix 4 μl/well of the supplemented lysis buffer, followed by incubation for 30 min at room temperature with shaking. Lysates were stored at −20° C. overnight. The following day plates were thawed and 2 μl of anti-Phospho-EGFR Cryptate and 2 μl of anti-Phospho-EGFR-d2 antibody solutions prepared in the detection buffer were added. The plates were then incubated for at least 4 h at room temperature before reading the fluorescence emission at 620 and 665 nm using PHERAstar FX plate reader (BMG Labtech).
A general note: Time-resolved FRET reads energy transfer from a long-lived donor to a nearby acceptor.

T1 sequence (P00533 25-1210 T790M/L858R): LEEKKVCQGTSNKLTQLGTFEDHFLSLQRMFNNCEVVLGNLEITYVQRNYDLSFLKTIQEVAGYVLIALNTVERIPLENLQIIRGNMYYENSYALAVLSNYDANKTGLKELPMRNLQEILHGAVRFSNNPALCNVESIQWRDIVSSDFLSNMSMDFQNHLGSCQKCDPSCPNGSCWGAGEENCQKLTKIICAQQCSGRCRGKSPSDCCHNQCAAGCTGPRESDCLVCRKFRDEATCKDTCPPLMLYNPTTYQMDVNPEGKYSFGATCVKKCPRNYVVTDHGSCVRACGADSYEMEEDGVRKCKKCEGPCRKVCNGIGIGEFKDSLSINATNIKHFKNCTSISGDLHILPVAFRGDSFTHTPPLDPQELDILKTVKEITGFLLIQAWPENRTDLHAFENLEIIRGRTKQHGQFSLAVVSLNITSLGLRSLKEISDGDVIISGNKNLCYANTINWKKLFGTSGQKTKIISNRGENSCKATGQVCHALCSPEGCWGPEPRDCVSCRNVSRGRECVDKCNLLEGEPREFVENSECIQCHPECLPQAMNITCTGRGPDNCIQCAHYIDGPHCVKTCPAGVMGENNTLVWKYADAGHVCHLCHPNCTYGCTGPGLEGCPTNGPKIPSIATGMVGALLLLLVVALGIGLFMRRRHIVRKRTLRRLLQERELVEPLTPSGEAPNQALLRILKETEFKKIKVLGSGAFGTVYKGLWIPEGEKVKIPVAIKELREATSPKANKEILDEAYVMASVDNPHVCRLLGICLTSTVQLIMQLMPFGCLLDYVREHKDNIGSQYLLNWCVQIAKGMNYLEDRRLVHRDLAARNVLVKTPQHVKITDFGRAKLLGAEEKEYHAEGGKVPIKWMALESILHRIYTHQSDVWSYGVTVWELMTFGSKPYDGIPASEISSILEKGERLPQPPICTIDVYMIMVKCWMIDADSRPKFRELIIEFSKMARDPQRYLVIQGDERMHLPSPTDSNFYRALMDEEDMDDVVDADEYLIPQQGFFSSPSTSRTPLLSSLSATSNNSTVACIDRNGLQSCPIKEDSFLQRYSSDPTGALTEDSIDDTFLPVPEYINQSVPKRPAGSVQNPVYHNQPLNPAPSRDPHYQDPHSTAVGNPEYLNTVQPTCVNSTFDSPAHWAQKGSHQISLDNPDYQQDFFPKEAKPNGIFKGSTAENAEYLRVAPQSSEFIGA

In general, IC50 refers to the point on the concentration scale where inhibition reaches its midpoint. A higher IC50 goes with weaker potency. Turning to `O=C(Nc1nccs1)C(c1ccccc1)N1Cc2ccc(C#Cc3ccccc3)cc2C1=O` (racemic) [Example 1, (2RS)-2-[1-Oxo-6-(2-phenylethynyl)isoindolin-2-yl]-2-phenyl-N-thiazol-2-yl-acetamide], the IC50 is 0.045 µM. With `O=C(Nc1nccs1)C(c1ccccc1)N1Cc2ccc(C#Cc3cccnc3)cc2C1=O` (racemic) [Example 2, (2RS)-2-[1-oxo-6-[2-(3-pyridyl)ethynyl]isoindolin-2-yl]-2-phenyl-N-thiazol-2-yl-acetamide], half-maximal inhibition (IC50) required 0.042 µM. Turning to `Nc1ccc(C#Cc2ccc3c(c2)C(=O)N(C(C(=O)Nc2nccs2)c2ccccc2)C3)cn1` (racemic) [Example 3, (2RS)-2-[6-[2-(6-Amino-3-pyridyl)ethynyl]-1-oxo-isoindolin-2-yl]-2-phenyl-N-thiazol-2-yl-acetamide], the IC50 worked out at 0.032 µM. Take `Nc1ccc(C#Cc2ccc3c(c2)C(=O)N(C(C(=O)Nc2nccs2)c2cccc(F)c2)C3)cn1` (racemic) [Example 4, (2RS)-2-[6-[2-(6-Amino-3-pyridyl)ethynyl]-1-oxo-isoindolin-2-yl]-2-(3-fluorophenyl)-N-thiazol-2-yl-acetamide]: the IC50 turned out to be 0.009 µM.

`Nc1ccc(C#Cc2ccc3c(c2)C(=O)N(C(C(=O)Nc2nccs2)c2cc(F)ccc2F)C3)cn1` (racemic) [Example 5, (2RS)-2-[6-[2-(6-Amino-3-pyridyl)ethynyl]-1-oxo-isoindolin-2-yl]-2-(2,5-difluorophenyl)-N-thiazol-2-yl-acetamide] displayed an IC50 of 0.007 µM. This IC50 and that of the molecule before are within 1.5-fold of each other. Regarding `NCc1ccc(C#Cc2ccc3c(c2)C(=O)N(C(C(=O)Nc2nccs2)c2ccccc2)C3)cc1` (racemic) [Example 6, (2RS)-2-[6-[2-[4-(Aminomethyl)phenyl]ethynyl]-1-oxo-isoindolin-2-yl]-2-phenyl-N-thiazol-2-yl-acetamide], the concentration for half-maximal inhibition (IC50) stood at 0.035 µM. For the molecule `CC(=O)Nc1ccc(C#Cc2ccc3c(c2)C(=O)N(C(C(=O)Nc2nccs2)c2ccccc2)C3)cn1` (racemic) [Example 7, (2RS)-2-[6-[2-(6-Acetamido-3-pyridyl)ethynyl]-1-oxo-isoindolin-2-yl]-2-phenyl-N-thiazol-2-yl-acetamide], half-maximal inhibition (IC50) required 0.01 µM. This IC50 is about 3.5-fold lower than that of the molecule before. Take `Nc1ccc(C#Cc2ccc3c(c2)C(=O)N(C(C(=O)Nc2nccs2)c2n[nH]c4c2CCC4)C3)cn1` (racemic) [Example 8, (2RS)-2-[6-[2-(6-Amino-3-pyridyl)ethynyl]-1-oxo-isoindolin-2-yl]-2-(1,4,5,6-tetrahydrocyclopenta[c]pyrazol-3-yl)-N-thiazol-2-yl-acetamide]: the IC50 was 0.0019 µM. This IC50 is about 5.3-fold lower than that of the molecule before. The molecule `CNC(=O)c1ccc(C#Cc2ccc3c(c2)C(=O)N(C(C(=O)Nc2nccs2)c2ccccc2)C3)cn1` (racemic) [Example 9, N-Methyl-5-[2-[3-oxo-2-[(1RS)-2-oxo-1-phenyl-2-(thiazol-2-ylamino)ethyl]isoindolin-5-yl]ethynyl]pyridine-2-carboxamide] yielded an IC50 of 0.016 µM.

In turn, `O=C(Nc1nccs1)C(c1ccccc1)N1Cc2ccc(C#Cc3ccc(CN4CCNCC4)cc3)cc2C1=O` (racemic) [Example 10, (2RS)-2-[1-Oxo-6-[2-[4-(piperazin-1-ylmethyl)phenyl]ethynyl]isoindolin-2-yl]-2-phenyl-N-thiazol-2-yl-acetamide hydrochloride] came in with an IC50 of 0.043 µM.

Take `O=C(Nc1nccs1)C(c1ccccc1)N1Cc2ccc(C#Cc3ccc(CN4CCOCC4)cc3)cc2C1=O` (racemic) [Example 11, (2RS)-2-[6-[2-[4-(Morpholinomethyl)phenyl]ethynyl]-1-oxo-isoindolin-2-yl]-2-phenyl-N-thiazol-2-yl-acetamide]: the midpoint of inhibition, the IC50, lay at 0.061 µM. Turning to `CC(=O)N1CCN(Cc2ccc(C#Cc3ccc4c(c3)C(=O)N(C(C(=O)Nc3nccs3)c3ccccc3)C4)cc2)CC1` (racemic) [Example 12, (2RS)-2-[6-[2-[4-[(4-acetylpiperazin-1-yl)methyl]phenyl]ethynyl]-1-oxo-isoindolin-2-yl]-2-phenyl-N-thiazol-2-1-acetamide], the IC50 was determined as 0.014 µM.

Regarding `CCN1CCN(Cc2ccc(C#Cc3ccc4c(c3)C(=O)N(C(C(=O)Nc3nccs3)c3ccccc3)C4)cc2)CC1` (racemic) [Example 13, (2RS)-2-[6-[2-[4-[(4-Ethylpiperazin-1-yl)methyl]phenyl]ethynyl]-1-oxo-isoindolin-2-yl]-2-phenyl-N-thiazol-2-yl-acetamide], the IC50 came out at 0.069 µM. Next, `O=C(Nc1nccs1)C(c1ccccc1)N1Cc2ccc(C#Cc3ccc(C(=O)N4CCOCC4)nc3)cc2C1=O` (racemic) [Example 14, (2RS)-2-[6-[2-[6-(Morpholine-4-carbonyl)-3-pyridyl]ethynyl]-1-oxo-isoindolin-2-yl]-2-phenyl-N-thiazol-2-yl-acetamide]: 0.051 µM; `Nc1ccc(C#Cc2ccc3c(c2)C(=O)N(C(C(=O)Nc2nccs2)c2cc(F)ccc2O)C3)cn1` (racemic) [Example 15, (2RS)-2-[6-[2-(6-Amino-3-pyridyl)ethynyl]-1-oxo-isoindolin-2-yl]-2-(5-fluoro-2-hydroxy-phenyl)-N-thiazol-2-yl-acetamide]: 0.001 µM. Next, `O=C(Nc1nccs1)C(c1cc(F)ccc1O)N1Cc2ccc(C#Cc3cccnc3)cc2C1=O` (racemic) [Example 16, (2RS)-2-(5-Fluoro-2-hydroxy-phenyl)-2-[1-oxo-6-[2-(3-pyridyl)ethynyl]isoindolin-2-yl]-N-thiazol-2-yl-acetamide]: 0.001 µM; `O=C(Nc1nccs1)C(c1cc(F)ccc1O)N1Cc2ccc(C#Cc3ccccc3)cc2C1=O` (racemic) [Example 17, (2RS)-2-(5-Fluoro-2-hydroxy-phenyl)-2-[1-oxo-6-(2-phenylethynyl)isoindolin-2-yl]-N-thiazol-2-yl-acetamide]: 0.006 µM.

`Nc1ncc(C#Cc2ccc3c(c2)C(=O)N(C(C(=O)Nc2nccs2)c2cc(F)ccc2O)C3)cn1` (racemic) [Example 18, (2RS)-2-[6-[2-(2-Aminopyrimidin-5-yl)ethynyl]-1-oxo-isoindolin-2-yl]-2-(5-fluoro-2-hydroxy-phenyl)-N-thiazol-2-yl-acetamide]: the IC50 worked out at 0.002 µM. On to `O=C(Nc1nccs1)C(c1cc(F)ccc1O)N1Cc2ccc(C#Cc3ccnc(Cl)c3)cc2C1=O` (racemic) [Example 19, (2RS)-2-[6-[2-(2-Chloro-4-pyridyl)ethynyl]-1-oxo-isoindolin-2-yl]-2-(5-fluoro-2-hydroxy-phenyl)-N-thiazol-2-yl-acetamide], for which the midpoint of inhibition, the IC50, lay at 0.003 µM. The molecule `Nc1ccc(C#Cc2ccc3c(c2)C(=O)N(C(C(=O)Nc2ccccn2)c2cc(F)ccc2O)C3)cn1` (racemic) [Example 20, (2RS)-2-[6-[2-(6-Amino-3-pyridyl)ethynyl]-1-oxo-isoindolin-2-yl]-2-(5-fluoro-2-hydroxy-phenyl)-N-(2-pyridyl)acetamide] came in with an IC50 of 0.004 µM. `Cc1c(C#Cc2ccc(N)nc2)ccc2c1C(=O)N(C(C(=O)Nc1nccs1)c1cc(F)ccc1O)C2` (racemic) [Example 21, (2RS)-2-[6-[2-(6-Amino-3-pyridyl)ethynyl]-7-methyl-1-oxo-isoindolin-2-yl]-2-(5-fluoro-2-hydroxy-phenyl)-N-thiazol-2-yl-acetamide]: the midpoint of inhibition, the IC50, lay at 0.003 µM.
